Measured values reported in patent US10670605B2, “Cysteine reactive probes and uses thereof” (The Scripps Research Institute, priority 2015, dated 2020).

Columns and labels:
Assay in all cases: Competitive isoTOP-ABPP in situ (fragment-treated cells)
Assay type in all cases: cell-based
[1] = target: cysteines in MDA-MB-231 and Ramos cells (Homo sapiens, UniProt Q9Y696); details: 200 μM, insitu
[2] = target: T1, cysteines in MDA-MB-231 and Ramos cells (Homo sapiens, UniProt P46734); details: 200 μM, insitu, 231
T1 sequence (P46734 1-347): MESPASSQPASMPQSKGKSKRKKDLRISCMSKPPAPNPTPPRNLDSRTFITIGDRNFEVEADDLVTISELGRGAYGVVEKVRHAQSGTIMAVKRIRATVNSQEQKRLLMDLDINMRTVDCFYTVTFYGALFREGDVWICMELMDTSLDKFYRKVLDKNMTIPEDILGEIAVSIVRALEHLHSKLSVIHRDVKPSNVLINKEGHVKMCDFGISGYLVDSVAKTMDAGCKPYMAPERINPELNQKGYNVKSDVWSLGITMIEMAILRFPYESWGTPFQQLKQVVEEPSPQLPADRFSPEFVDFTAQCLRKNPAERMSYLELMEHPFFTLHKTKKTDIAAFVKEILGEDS

[3] = target: T2, cysteines in MDA-MB-231 and Ramos cells (Homo sapiens, UniProt P30101); details: 200 μM, insitu
T2 sequence (P30101 25-505): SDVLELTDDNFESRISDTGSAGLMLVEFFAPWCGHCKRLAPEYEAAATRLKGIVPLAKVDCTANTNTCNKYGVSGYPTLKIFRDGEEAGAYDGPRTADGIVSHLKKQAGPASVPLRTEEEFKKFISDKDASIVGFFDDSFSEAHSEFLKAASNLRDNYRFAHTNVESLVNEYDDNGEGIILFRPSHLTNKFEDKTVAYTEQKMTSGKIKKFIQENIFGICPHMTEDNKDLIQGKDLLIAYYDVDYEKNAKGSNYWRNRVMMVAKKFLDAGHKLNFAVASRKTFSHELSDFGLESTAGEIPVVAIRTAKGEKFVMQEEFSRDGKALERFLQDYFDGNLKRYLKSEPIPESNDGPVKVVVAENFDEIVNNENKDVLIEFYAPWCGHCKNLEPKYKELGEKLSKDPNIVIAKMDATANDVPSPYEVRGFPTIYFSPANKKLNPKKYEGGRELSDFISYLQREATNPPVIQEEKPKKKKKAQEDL

[4] = target: T3, cysteines in MDA-MB-231 and Ramos cells (Homo sapiens, UniProt Q96HE7); details: 200 μM, insitu
T3 sequence (Q96HE7 24-468): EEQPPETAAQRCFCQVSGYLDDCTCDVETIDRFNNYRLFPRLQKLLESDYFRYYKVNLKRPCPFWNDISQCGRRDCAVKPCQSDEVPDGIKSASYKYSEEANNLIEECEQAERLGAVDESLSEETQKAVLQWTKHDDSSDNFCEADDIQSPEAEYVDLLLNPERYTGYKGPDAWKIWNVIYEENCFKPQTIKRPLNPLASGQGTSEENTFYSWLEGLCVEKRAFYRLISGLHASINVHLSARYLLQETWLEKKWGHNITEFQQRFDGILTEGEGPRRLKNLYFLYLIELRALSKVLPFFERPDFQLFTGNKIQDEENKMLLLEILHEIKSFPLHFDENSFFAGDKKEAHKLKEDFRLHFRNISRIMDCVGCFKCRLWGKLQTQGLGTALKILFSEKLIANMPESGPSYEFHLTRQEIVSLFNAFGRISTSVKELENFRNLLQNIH

[5] = target: T4, cysteines in MDA-MB-231 and Ramos cells (Homo sapiens, UniProt Q9BRA2); details: 200 μM, insitu
T4 sequence (Q9BRA2 1-123): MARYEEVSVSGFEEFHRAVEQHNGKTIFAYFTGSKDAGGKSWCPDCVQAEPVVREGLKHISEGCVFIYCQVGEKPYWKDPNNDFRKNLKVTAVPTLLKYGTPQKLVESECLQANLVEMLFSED

[6] = target: T5, cysteines in MDA-MB-231 and Ramos cells (Homo sapiens, UniProt O15294); details: 200 μM, insitu
T5 sequence (O15294 1-1046): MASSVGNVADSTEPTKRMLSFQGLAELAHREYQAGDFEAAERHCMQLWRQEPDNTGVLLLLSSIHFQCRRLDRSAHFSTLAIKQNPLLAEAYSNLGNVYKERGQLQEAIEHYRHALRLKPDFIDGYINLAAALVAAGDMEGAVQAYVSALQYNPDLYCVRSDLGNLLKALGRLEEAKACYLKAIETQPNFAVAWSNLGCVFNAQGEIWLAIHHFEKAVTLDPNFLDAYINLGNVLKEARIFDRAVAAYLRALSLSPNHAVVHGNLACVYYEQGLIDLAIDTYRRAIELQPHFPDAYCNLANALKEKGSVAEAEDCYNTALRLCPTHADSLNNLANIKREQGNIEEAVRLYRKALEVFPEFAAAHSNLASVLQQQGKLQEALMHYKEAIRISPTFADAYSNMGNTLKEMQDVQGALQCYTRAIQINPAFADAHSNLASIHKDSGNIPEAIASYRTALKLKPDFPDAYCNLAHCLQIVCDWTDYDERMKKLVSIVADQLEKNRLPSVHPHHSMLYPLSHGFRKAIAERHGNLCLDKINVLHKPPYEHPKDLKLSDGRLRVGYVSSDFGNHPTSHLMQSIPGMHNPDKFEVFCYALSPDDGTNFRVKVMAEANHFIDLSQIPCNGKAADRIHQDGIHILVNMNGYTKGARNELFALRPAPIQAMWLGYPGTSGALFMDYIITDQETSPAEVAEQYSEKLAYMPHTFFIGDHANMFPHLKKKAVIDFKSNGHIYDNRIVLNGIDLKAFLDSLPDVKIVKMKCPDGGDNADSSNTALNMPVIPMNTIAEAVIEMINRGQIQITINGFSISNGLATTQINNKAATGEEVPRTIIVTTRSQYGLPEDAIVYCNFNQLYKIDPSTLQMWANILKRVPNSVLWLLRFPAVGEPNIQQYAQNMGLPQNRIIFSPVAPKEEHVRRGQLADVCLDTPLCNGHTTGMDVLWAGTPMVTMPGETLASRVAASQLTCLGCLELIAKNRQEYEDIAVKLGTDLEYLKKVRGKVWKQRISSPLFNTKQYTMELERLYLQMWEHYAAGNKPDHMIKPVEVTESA

Chain of cysteines in MDA-MB-231 and Ramos cells (Homo sapiens, UniProt Q9Y696) (Q9Y696 whole entry): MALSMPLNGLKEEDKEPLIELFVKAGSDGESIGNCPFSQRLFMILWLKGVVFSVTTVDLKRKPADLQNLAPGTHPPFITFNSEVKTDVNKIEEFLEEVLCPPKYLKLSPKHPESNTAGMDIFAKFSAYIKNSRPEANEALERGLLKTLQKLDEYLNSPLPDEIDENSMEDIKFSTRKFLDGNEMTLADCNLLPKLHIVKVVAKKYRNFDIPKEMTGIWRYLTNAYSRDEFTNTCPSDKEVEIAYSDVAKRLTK

Row | isoTOP-ABPP ratio Q9Y696_C35 [1]; 231 | isoTOP-ABPP ratio P46734_C207 [2] | isoTOP-ABPP ratio P30101_C57 [3]; 231 | isoTOP-ABPP ratio Q96HE7_C241 [4]; 231 | isoTOP-ABPP ratio Q9BRA2_C43 [5]; 231 | isoTOP-ABPP ratio O15294_C758 [6]; 231 | isoTOP-ABPP ratio P30101_C406 [3]; 231 | isoTOP-ABPP ratio Q9Y696_C35 ([1]; ramos) | isoTOP-ABPP ratio P30101_C57 ([3]; ramos) | isoTOP-ABPP ratio P30101_C406 ([3]; ramos) | isoTOP-ABPP ratio Q96HE7_C37 ([4]; ramos) | isoTOP-ABPP ratio Q96HE7_C241 ([4]; ramos) | isoTOP-ABPP ratio Q9BRA2_C43 ([5]; ramos) | isoTOP-ABPP ratio O15294_C620 ([6]; ramos) | isoTOP-ABPP ratio Q96HE7_C37 [4]; 231 | isoTOP-ABPP ratio O15294_C620 [6]; 231 | SMILES
1 | 1.1 | 0.9 | 1.0 | 1.6 | 16.0 | 1.1 |  |  |  |  |  |  |  |  |  |  | O=C(CCl)NC12CC3CC(CC(C3)C1)C2 [compound 21]
2 | 1.0 | 0.8 | 1.1 | 0.9 | 20.0 | 1.0 | 1.2 |  |  |  |  |  |  |  |  |  | CC(C)CCOCCNC(=O)CCl [compound 27]
3 | 2.7 |  | 1.6 | 1.1 |  | 1.0 |  |  |  |  |  |  |  |  |  |  | COc1ccccc1OCCNC(=O)CCl [compound 28]
4 |  |  |  |  |  |  |  | 1.0 | 1.2 | 1.5 | 2.1 | 1.3 | 2.3 | 2.6 |  |  | O=C(CCl)N1CCN(CC(=O)N2CCOCC2)CC1 [compound 29]
5 | 0.6 |  | 0.9 | 0.7 | 0.6 |  | 0.8 |  |  | 1.1 |  |  |  |  | 0.6 | 1.1 | C=CC(=O)N(Cc1cccnc1)c1cc(C(F)(F)F)cc(C(F)(F)F)c1 [compound 31]
6 | 1.0 | 1.5 | 0.9 | 1.6 | 1.1 |  | 0.8 |  |  |  |  |  |  |  | 3.4 |  | C=CC(=O)Nc1cc(F)c(N2CCN(C(=O)OC(C)(C)C)CC2)c(F)c1 [compound 38]
7 | 0.6 | 0.7 | 1.3 | 0.7 | 0.6 | 0.9 | 1.0 |  |  |  |  |  |  |  | 0.4 | 1.0 | Cc1ccc(C=C(C#N)C(=O)NCCN2CCOCC2)cc1 [compound 41]
8 | 1.4 | 1.5 | 2.6 | 2.1 | 8.0 | 2.9 | 2.6 |  |  |  |  |  |  |  | 20.0 |  | CC1CCc2ccccc2N1C(=O)CCl (stereo not shown) [compound 45]
9 | 2.6 | 0.7 |  | 1.7 |  | 1.1 | 6.0 |  |  |  |  |  |  |  |  |  | O=C(CCl)Nc1cccc2ncccc12 [compound 51]
